Experiments:
[1] = DRUGMATRIX: Nicotinic Acetylcholine radioligand binding (ligand: [125I] Epibatidine); assay type: cell membranes, Membrane; settings: imr-32; Not Active = under 50% inhibition at 10 µM
Insulin receptor = Insulin receptor (Rattus norvegicus, UniProt P15127); assay type: cell membranes, Wistar, Liver, Membrane; note: in other assays of this panel Not Active means under 50% inhibition at 10 µM
[2] = target: C-C chemokine receptor type 2 (Homo sapiens, UniProt P41597); assay type: cell membranes, CHO-K1, Membrane; settings: cho-k1; note: in other assays of this panel Not Active means under 50% inhibition at 10 µM
Chain of C-C chemokine receptor type 2 (P41597 whole entry): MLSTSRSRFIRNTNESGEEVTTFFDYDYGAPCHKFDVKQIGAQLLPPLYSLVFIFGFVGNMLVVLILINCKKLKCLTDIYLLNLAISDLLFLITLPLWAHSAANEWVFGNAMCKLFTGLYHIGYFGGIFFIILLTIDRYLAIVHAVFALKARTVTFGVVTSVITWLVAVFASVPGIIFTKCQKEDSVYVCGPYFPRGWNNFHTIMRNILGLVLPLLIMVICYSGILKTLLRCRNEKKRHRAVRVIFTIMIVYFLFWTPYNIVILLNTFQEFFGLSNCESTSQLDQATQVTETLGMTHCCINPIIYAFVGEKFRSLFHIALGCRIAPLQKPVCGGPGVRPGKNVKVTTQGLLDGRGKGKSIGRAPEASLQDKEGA

[3] = DRUGMATRIX: Interleukin IL-1 radioligand binding (ligand: [125I] interleukin 1beta); assay type: cell membranes, Membrane; settings: nih3t3; Not Active = under 50% inhibition at 10 µM
D(3) dopamine receptor = D(3) dopamine receptor (Homo sapiens, UniProt P35462); assay: DRUGMATRIX: Dopamine D3 radioligand binding (ligand: [3H] Spiperone); assay type: cell membranes, CHO, Membrane; settings: cho
Chain of D(3) dopamine receptor (P35462 whole entry): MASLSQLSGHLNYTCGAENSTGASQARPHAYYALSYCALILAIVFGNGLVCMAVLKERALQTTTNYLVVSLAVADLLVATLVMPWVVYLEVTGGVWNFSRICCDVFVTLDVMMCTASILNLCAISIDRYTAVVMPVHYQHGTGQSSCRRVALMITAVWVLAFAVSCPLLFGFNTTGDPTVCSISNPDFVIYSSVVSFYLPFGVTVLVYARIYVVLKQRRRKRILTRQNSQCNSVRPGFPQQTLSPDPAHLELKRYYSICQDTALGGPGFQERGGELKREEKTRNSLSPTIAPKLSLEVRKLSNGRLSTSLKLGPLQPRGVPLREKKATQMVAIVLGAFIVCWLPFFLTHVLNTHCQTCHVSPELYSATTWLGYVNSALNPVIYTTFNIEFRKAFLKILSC

Substance-P receptor = Substance-P receptor (Homo sapiens, UniProt P25103); assay type: cell membranes, Membrane; settings: cho; note: in other assays of this panel Not Active means under 50% inhibition at 10 µM
Chain of Substance-P receptor (P25103 whole entry): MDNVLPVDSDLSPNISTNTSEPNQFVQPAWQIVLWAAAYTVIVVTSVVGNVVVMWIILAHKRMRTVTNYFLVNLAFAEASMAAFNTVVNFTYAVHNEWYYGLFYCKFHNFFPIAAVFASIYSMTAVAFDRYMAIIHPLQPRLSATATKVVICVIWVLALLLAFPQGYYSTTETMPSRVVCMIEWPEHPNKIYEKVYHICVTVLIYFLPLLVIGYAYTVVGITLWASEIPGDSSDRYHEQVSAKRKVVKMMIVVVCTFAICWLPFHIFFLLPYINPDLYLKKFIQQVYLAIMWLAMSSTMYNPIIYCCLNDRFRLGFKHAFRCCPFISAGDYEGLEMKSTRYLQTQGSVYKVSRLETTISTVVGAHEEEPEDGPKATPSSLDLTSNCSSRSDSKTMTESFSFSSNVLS

[4] = target: Protein kinase C alpha type (Homo sapiens, UniProt P17252); assay type: cell-based; settings: sf9;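 note: inhibition of PKCalpha kinase activity measured in an enzyme assay with histone as the phosphorylation substrate; in other assays of this panel Not Active means under 50% inhibition at 10 µM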

Chain of Insulin receptor (P15127 27-759 limits assumed): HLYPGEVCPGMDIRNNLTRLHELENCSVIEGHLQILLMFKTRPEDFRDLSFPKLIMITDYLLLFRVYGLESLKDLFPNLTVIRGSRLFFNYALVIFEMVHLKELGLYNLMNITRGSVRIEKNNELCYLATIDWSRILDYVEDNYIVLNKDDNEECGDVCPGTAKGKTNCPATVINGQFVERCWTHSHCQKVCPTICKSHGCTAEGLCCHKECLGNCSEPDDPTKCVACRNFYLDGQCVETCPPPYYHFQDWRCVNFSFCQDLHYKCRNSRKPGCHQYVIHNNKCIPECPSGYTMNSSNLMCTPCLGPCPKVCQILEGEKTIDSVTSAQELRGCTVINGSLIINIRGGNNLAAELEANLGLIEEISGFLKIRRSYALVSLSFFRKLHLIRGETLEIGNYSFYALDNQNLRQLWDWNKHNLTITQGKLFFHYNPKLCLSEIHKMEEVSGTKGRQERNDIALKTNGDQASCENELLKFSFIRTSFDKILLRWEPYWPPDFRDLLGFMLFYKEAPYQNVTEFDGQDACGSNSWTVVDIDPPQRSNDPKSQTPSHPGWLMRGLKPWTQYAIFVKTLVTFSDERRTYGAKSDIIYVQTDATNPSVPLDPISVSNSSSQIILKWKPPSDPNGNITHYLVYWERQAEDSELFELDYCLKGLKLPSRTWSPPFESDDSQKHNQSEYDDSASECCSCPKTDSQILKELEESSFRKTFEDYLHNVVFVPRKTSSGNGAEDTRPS
Chain of Insulin receptor (P15127 764-1383 limits assumed): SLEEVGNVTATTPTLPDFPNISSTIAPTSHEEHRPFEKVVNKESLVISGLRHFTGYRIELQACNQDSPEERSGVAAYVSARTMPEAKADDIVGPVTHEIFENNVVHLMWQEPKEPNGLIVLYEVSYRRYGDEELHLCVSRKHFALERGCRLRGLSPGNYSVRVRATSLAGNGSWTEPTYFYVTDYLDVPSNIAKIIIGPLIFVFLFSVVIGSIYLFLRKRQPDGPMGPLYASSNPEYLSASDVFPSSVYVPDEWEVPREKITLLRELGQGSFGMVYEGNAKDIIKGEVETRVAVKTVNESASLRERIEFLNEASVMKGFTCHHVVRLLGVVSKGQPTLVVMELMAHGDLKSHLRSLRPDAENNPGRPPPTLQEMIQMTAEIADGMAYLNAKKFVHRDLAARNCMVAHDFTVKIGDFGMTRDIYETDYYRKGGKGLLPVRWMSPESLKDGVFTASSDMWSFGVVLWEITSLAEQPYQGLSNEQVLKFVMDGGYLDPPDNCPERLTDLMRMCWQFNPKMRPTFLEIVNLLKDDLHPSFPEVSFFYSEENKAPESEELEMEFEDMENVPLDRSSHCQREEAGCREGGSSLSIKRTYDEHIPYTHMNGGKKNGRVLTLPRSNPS

Compound	IC50 [1]	Ki [1]	IC50 (Insulin receptor)	IC50 [2]	IC50 [3]	Ki [3]	IC50 (D(3) dopamine receptor)	IC50 (Substance-P receptor)	IC50 [4]	Ki (Insulin receptor)	Ki [2]	Ki (D(3) dopamine receptor)	Ki (Substance-P receptor)	Ki [4]	IC50 (D(3) dopamine receptor; read-out: IC50) [µM]	Ki (D(3) dopamine receptor; read-out: Ki) [µM]
CC(=O)O[C@H]1C[C@@H]2CC[C@@H]3[C@H](CC[C@@]4(C)[C@H]3C[C@H]([N+]3(C)CCCCC3)[C@@H]4OC(C)=O)[C@@]2(C)C[C@@H]1N1CCCCC1.[Br-] [VECURONIUM BROMIDE]	Not Active	Not Active	Not Active	Not Active	Not Active	Not Active	Not Active	Not Active	Not Active	–	–	–	–	–	–	–
COc1cc(C(=O)NS(=O)(=O)c2ccccc2C)ccc1Cc1cn(C)c2ccc(NC(=O)OC3CCCC3)cc12 [ZAFIRLUKAST]	Not Active	Not Active	Not Active	Not Active	Not Active	Not Active	Not Active	Not Active	Not Active	–	–	–	–	–	–	–
Cc1cn([C@H]2C[C@H](N=[N+]=[N-])[C@@H](CO)O2)c(=O)[nH]c1=O [ZIDOVUDINE]	Not Active	Not Active	Not Active	Not Active	Not Active	Not Active	Not Active	Not Active	Not Active	–	–	–	–	–	–	–
STANNOUS FLUORIDE	Not Active	Not Active	Not Active	Not Active	Not Active	Not Active	Not Active	Not Active	Not Active	Not Active	Not Active	Not Active	Not Active	Not Active	–	–
THIMEROSAL	Not Active	Not Active	Not Active	Not Active	Not Active	Not Active	–	Not Active	Not Active	Not Active	Not Active	–	Not Active	Not Active	0.085	0.029
